The structures appear in SMILES notation.

The target in one assay is T1, LRRK2-G2019S(human) (Homo sapiens, UniProt Q5S007, G2019S).
T1 construct: DYKDDDDK (FLAG)
In words: LRRK2-G2019S Kinase activity assay (Lanthascreen TR-FRET). The class given is biochemical. Conditions: full-length LRRK2 G2019S, LRRKtide substrate, 1.1mM ATP. On the procedure: LRRK2-G2019S Kinase activity assay: The measurements of the activities were made using a LRRK2-G2019S(human) Kinase activity assay as described hereunder. The potency of compounds was evaluated in vitro using the Lanthascreen® technology (ThermoFisher Scientific).
The biological assay requires the […]-tagged full-length LRRK2 G2019S protein, the fluorescent peptide substrate named LRRKtide or ERM ([…] supplied by PolyPeptide Group), the ATP substrate, and different concentrations of test compounds. In a typical experiment, the reaction assay buffer contains 50mM Tris pH8.2, 1mM EGTA, 2.5mM MgCl2, 0.05% Triton X100, 0.15% BSA and 1mM DTT. The detection of the assay is performed using 1nM Terbium labeled anti-phospho-LRRKtide (ThermoFisher Scientific) diluted in a TR-FRET buffer (ThermoFisher Scientific).
The experimental procedure was performed with Greiner small volume® 384-well. The assay is started by a pre-incubation step of full-length LRRK2 G2019S mutant protein with reaction assay buffer and a dilution series of test compound for at least 30 minutes at room temperature. The working solution of compounds was prepared in a separate Greiner microplate.
The kinase reaction was initiated by addition of the ATP/LRRKtide substrate mix diluted in the reaction assay buffer. The reaction mix was incubated for at least 10 minutes at room temperature (initial velocity conditions). Reaction was stopped by addition of Terbium labeled anti-phospho-LRRKtide diluted into the detection buffer supplemented with EDTA (ThermoFisher Scientific). Plates are incubated for at least 30 minutes at room temperature and read on an Envision™ multimode plate reader (PerkinElmer) with LanthaScreen™. The TR-FRET 520:495 nm emission ratio was calculated and used to determine the IC50 value from a dose response curve fit to the 4-parameter logistic equation. The activity with respect to LRRK2 kinase in this test is given by the concentration which inhibits 50% of the LRRK2 activity (or IC50) in nM.
(In general: In TR-FRET formats the signal depends on donor and acceptor labels being close together.)

Another assay concerns the target LRRK2(human) WT (Homo sapiens, UniProt Q5S007). Briefly: LRRK2 WT assay (assay A), Lanthascreen TR-FRET. It is filed as biochemical. Conditions: assay A (values without "*"): full-length LRRK2 wild type, 500uM ATP.

T1 sequence (Q5S007 whole entry G2019S): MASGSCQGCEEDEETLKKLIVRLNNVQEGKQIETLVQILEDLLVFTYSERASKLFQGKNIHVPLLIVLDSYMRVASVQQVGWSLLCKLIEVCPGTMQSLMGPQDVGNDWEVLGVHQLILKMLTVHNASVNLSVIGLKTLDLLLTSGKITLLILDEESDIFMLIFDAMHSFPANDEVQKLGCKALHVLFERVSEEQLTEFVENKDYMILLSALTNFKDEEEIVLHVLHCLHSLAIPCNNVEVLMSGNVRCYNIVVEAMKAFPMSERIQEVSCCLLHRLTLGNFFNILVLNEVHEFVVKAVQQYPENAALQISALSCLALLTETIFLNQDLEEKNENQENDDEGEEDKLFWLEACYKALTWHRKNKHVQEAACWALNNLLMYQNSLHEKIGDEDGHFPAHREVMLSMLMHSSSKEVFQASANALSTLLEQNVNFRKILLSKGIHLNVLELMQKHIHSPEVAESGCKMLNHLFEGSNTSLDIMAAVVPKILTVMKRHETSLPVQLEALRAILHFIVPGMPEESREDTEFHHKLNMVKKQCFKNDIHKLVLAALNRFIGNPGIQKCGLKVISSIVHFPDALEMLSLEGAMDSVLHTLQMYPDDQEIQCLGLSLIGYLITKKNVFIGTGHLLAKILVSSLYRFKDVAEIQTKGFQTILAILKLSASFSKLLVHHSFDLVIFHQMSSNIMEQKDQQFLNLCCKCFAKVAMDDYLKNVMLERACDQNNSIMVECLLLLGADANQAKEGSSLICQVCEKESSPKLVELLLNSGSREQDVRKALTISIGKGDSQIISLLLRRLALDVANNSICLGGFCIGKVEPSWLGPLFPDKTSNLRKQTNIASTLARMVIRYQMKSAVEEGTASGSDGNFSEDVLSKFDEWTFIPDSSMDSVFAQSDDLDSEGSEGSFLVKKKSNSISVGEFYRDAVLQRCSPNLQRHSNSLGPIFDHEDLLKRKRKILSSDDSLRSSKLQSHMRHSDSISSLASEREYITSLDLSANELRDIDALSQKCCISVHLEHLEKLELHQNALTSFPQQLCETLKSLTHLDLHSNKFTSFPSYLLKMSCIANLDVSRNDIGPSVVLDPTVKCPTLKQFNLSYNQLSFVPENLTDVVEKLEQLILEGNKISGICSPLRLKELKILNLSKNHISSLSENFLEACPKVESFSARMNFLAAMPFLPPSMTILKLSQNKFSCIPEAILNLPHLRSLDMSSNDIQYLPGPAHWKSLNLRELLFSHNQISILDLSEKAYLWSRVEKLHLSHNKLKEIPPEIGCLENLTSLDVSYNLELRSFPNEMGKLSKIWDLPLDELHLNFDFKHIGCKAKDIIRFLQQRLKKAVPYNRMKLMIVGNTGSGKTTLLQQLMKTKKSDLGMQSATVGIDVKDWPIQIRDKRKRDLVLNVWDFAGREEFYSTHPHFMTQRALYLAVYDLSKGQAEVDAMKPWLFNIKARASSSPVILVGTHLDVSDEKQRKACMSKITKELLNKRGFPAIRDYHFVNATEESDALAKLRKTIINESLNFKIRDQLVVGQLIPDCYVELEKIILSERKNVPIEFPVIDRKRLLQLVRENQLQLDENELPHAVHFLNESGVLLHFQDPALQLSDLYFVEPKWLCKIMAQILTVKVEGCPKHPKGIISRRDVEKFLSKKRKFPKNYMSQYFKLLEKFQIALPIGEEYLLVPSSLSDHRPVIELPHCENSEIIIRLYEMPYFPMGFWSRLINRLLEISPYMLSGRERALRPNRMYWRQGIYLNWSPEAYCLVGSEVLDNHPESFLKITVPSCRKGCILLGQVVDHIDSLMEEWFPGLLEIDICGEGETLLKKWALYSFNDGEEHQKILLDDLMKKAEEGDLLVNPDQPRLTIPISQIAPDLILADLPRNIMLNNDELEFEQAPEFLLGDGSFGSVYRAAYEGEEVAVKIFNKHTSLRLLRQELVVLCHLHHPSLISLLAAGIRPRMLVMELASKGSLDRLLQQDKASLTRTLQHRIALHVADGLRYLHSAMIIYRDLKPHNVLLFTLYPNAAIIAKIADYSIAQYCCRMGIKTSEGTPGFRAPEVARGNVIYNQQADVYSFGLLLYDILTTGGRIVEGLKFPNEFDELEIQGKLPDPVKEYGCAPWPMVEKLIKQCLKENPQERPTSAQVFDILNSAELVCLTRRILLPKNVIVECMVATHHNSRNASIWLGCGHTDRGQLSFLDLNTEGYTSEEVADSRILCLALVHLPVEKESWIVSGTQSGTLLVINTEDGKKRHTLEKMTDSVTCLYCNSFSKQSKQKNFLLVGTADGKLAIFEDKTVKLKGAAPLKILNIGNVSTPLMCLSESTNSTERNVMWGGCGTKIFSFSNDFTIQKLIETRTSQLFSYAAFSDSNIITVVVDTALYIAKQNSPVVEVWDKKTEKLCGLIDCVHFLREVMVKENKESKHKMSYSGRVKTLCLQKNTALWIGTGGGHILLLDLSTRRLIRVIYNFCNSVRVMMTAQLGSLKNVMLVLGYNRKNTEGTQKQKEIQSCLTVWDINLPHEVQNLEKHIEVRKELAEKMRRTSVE
Sequence of LRRK2(human) WT (Q5S007 whole entry): as the sequence (Q5S007 whole entry G2019S) above, with S2019G counted along it

In the case of `CC(=O)N1CC(Oc2nn(C)cc2Nc2ncc3cc(C#N)n([C@H]4COC[C@@H]4C)c3n2)C1(C)C` (single isomer, unassigned) [Example 17], the IC50 against LRRK2-G2019S(human) and at LRRK2(human) WT was 3 nM each time.
Turning to `CC(=O)N1CC(Oc2nn(C)cc2Nc2ncc3cc(C#N)n([C@H]4COC[C@@H]4C)c3n2)C1(C)C` (single isomer, unassigned) [Example 18], the IC50 against LRRK2-G2019S(human) and against LRRK2(human) WT was 2 nM in each case.
In turn, `COCC(C)n1c(C#N)cc2cnc(Nc3cn(C)nc3OC3COC3C)nc21` (single isomer, unassigned) [Example 87, 7-[(1S)-2-methoxy-1-methyl-ethyl]-2-[[1-methyl-3-[(2S, 3R)-2-methyloxetan-3-yl]oxy-pyrazol-4-yl]amino]pyrrolo[2,3-d]pyrimidine-6-carbonitrile or 7-[(1S)-2-methoxy-1-methyl-ethyl]-2-[[1-methyl-3-[(2R, 3S)-2-methyloxetan-3-yl]oxy-pyrazol-4-yl]amino]pyrrolo[2,3-d]pyrimidine-6-carbonitrile] showed an IC50 against LRRK2-G2019S(human) of 5 nM.
`[2H]C([2H])([2H])n1cc(Nc2ncc3cc(C#N)n(C(C)COC)c3n2)c(OC2COC2C)n1` (single isomer, unassigned) [Example 89, 7-[(1S)-2-methoxy-1-methyl-ethyl]-2-[[3-[(2S,3R)-2-methyloxetan-3-yl]oxy-1-(methyl-d3)pyrazol-4-yl]amino]pyrrolo[2,3-d]pyrimidine-6-carbonitrile or 7-[(1S)-2-methoxy-1-methyl-ethyl]-2-[[3-[(2R,3S)-2-methyloxetan-3-yl]oxy-1-(methyl-d3)pyrazol-4-yl]amino]pyrrolo[2,3-d]pyrimidine-6-carbonitrile] registered an IC50 against LRRK2-G2019S(human) of 5 nM.

As a reminder, the IC50 is the concentration that gives 50% inhibition. Lower therefore signals inhibition by little substance.

Source of the values: patent EP4105218A1, “SUBSTITUTED PYRROLO[2,3-D] PYRIMIDINES, THEIR PREPARATION AND THEIR THERAPEUTIC APPLICATION” (SANOFI, priority 2021, dated 2022).
